These results are taken from ChEMBL document CHEMBL3621174, “Synthesis and evaluation of new tyrosyl-tRNA synthetase inhibitors as antibacterial agents based on a N2-(arylacetyl)glycinanilide scaffold” (Eur J Med Chem, 2015).

Converted amounts (≈) assume the structure as drawn.

Assay [1] can be described thus: Inhibition of Staphylococcus aureus Tyrosyl-tRNA synthetase using L-[ring-3,5-3H] tyrosine as substrate after 10 min by liquid scintillation assay.
Assay [2] relates to Staphylococcus aureus. Kind of assay: Antibacterial activity against Staphylococcus aureus ATCC 6538 after 24 hr by MTT assay. Format: functional. The conditions noted are these: ATCC 6538, 24 h. (In general: Tetrazolium assays rely on reduction of a dye to a coloured formazan, in cell work by metabolically active cells.)
The test system of assay [3] is Staphylococcus aureus. The experiment in a line: Antibacterial activity against Staphylococcus aureus ATCC 25923 after 24 hr by MTT assay. The class given is functional. Particulars: ATCC 25923, 24 h.
The subject of assay [4] is Escherichia coli. The experiment in a line: Antibacterial activity against Escherichia coli ATCC 8739 after 24 hr by MTT assay. Format: functional. The conditions noted are these: ATCC 8739, 24 h.
The test system of assay [5] is Escherichia coli. The experiment in a line: Antibacterial activity against Escherichia coli ATCC 35218 after 24 hr by MTT assay. Format: functional. Particulars: ATCC 35218, 24 h.
Assay [6] deals with Pseudomonas aeruginosa. Kind of assay: Antibacterial activity against Pseudomonas aeruginosa ATCC 9027 after 24 hr by MTT assay. The class given is functional. The conditions noted are these: ATCC 9027, 24 h.
Assay [7] has as its system Staphylococcus aureus. The experiment in a line: Potency index, ratio of penicillin G MIC to compound MIC for Staphylococcus aureus ATCC 6538. The class given is functional.
The test system of assay [8] is Pseudomonas aeruginosa. The experiment in a line: Potency index, ratio of penicillin G MIC to compound MIC for Pseudomonas aeruginosa ATCC 9027. Format: functional.

On to `O=C(Cc1cccc(Cl)c1)NCC(=O)Nc1ccc([N+](=O)[O-])cc1`, for which half-maximal inhibition in assay [1] (IC50) was put at 700 nM. The MIC (commonly the lowest concentration that inhibits growth of the organism) in the assay on Staphylococcus aureus [2] is 1.84 µM (≈ 0.64 µg/mL); against Staphylococcus aureus [3], 2.36 µM (≈ 0.821 µg/mL); against Escherichia coli [4], 6.8 µM (≈ 2.36 µg/mL); in the assay on Escherichia coli [5], 9.5 µM (≈ 3.3 µg/mL); in the assay on Pseudomonas aeruginosa [6], 10.1 µM (≈ 3.51 µg/mL). Moreover, the MIC50 (in general, an inhibitory concentration at the 50% level, which refers to growth in some studies and to a panel of isolates in others) is 0.52 µM (≈ 0.181 µg/mL) in the assay with Staphylococcus aureus [2] and 3.37 µM (≈ 1.17 µg/mL) in the assay on Pseudomonas aeruginosa [6]. In addition, the Ratio in the assay on Staphylococcus aureus [7] came to 3; with Pseudomonas aeruginosa [8], 3.9.
